EC50 data for 31 compounds are collected here from patent publication US12552772B2, “2-pyrazole anilines and related analogs for inhibiting YAP/TAZ-TEAD” (KATHOLIEKE UNIVERSITEIT LEUVEN, priority 2021, dated 2026).

The experiment deals with YAP/TAZ-TEAD transcription. As to the kind of experiment: Reporter gene assay for measuring the inhibition of YAP/TAZ-TEAD transcription (TEAD-responsive element luciferase reporter in Hek293T cells). The experiment is classed as cell-based. To be noted: Homo sapiens, HEK-293T, 24 hours incubation. As to the method:
Hek293T cells are cultured in DMEM supplemented with 10% fetal bovine serum, Sodium pyruvate, Sodium bicarbonate, L-glutamine. The cells are harvested and transiently transfected with TEAD-responsive element luciferase reporter. Transfected cells are plated in 384-wells plate containing pre-diluted compounds. After 24 hours incubation at 37° C./5% CO2, assay plates were cooled down to RT and levelled to an equal volume per well, prior to the addition of 25 uL luciferase substrate SteadyLite (Perkin Elmer)/well. The plate was shaken for 10 min at 600 rpm, centrifuged for 1 min at 500 rpm and measured with an Envision reader (PerkinElmer). The amount of relative light units produced by the TEAD reporter is used to calculated percent of inhibition.
The percent of reporter inhibition was calculated in the presence of a positive control inhibitor (100% inhibition) versus a condition with the presence of the vehicle basal activity of the reporter (0% inhibition). The ability of a test compound to inhibit this activity was determined as: Percentage inhibition=[1−((RLU determined in the presence of vehicle−RLU determined for sample with test compound present) divided by (RLU determined in the presence of vehicle−RLU determined for sample with positive control inhibitor))]*100
The activities of the example compounds tested are depicted in the table below. The activity ranges A, B and C refer to EC50 values in the reporter gene assay as described as follows: “A”: EC50<1 μM; “B”: 1 μM s EC50≤20 μM and “C”: EC50>20 μM, NT=not tested.
On the technique in general: A reporter such as luciferase makes a cellular process visible.
`C=CC(=O)NCc1cnc(-c2ccc(F)cc2)cc1-c1cnn(C(F)F)c1` [Cpd. No. 224, N-((4-(1-(difluoromethyl)-1H-pyrazol-4-yl)-6-(4-fluorophenyl)pyridin-3-yl)methyl)acrylamide] registered an EC50 of 1 to 20 µM. `C=CC(=O)NCc1cnc(-c2ccc(F)cc2)cc1-c1cn(C(F)F)nn1` [Cpd. No. 229, N-((4-(1-(difluoromethyl)-1H-1,2,3-triazol-4-yl)-6-(4-fluorophenyl)pyridin-3-yl)methyl)acrylamide] gave an EC50 of less than 1 µM. For the compound `C=CC(=O)NCc1c(-c2ccn(C)n2)cc(-c2ccc(F)cc2)[nH]c1=O` [Cpd. No. 233, N-((6-(4-fluorophenyl)-4-(1-methyl-1H-pyrazol-3-yl)-2-oxo-1,2-dihydropyridin-3-yl)methyl)acrylamide], the half-maximal effective concentration (EC50) is greater than 20 µM.

In turn, `C=CC(=O)NCc1[nH]c(=O)c(-c2ccc(F)cc2)cc1-c1ccn(C)n1` [Cpd. No. 234, N-((5-(4-fluorophenyl)-3-(1-methyl-1H-pyrazol-3-yl)-6-oxo-1,6-dihydropyridin-2-yl)methyl)acrylamide] had a 50% effective concentration (EC50) of less than 1 µM. The result for `C=CC(=O)NCc1cc(=O)n(-c2ccc(F)cc2)cc1-c1ccn(C)n1` [Cpd. No. 235, N-((1-(4-fluorophenyl)-5-(1-methyl-1H-pyrazol-3-yl)-2-oxo-1,2-dihydropyridin-4-yl)methyl)acrylamide] reads greater than 20 µM; that for `C=CC(=O)NCc1cnc(-c2ccc(F)cc2)cc1-n1cccn1` [Cpd. No. 239, N-((6-(4-fluorophenyl)-4-(1H-pyrazol-1-yl)pyridin-3-yl)methyl)acrylamide], less than 1 µM. The result for `C=CC(=O)NC1(c2ccc(-c3ccc(F)cc3)cc2-c2ccn(C)n2)CC1` [Cpd. No. 256, N-(1-(4′-fluoro-3-(1-methyl-1H-pyrazol-3-yl)-[1,1′-biphenyl]-4-yl)cyclopropyl)acrylamide] reads less than 1 µM; that for `C=CC(=O)NC1CC1c1ccc(-c2ccccc2)cc1-c1ccn(C)n1` (stereo not shown) [Cpd. No. 257, N-(2-(3-(1-methyl-1H-pyrazol-3-yl)-[1,1′-biphenyl]-4-yl)cyclopropyl)acrylamide], less than 1 µM. Consider `C=CC(=O)N1CCC(c2cc(-c3ccc(F)cc3)nc(-c3ccn(C(F)F)n3)c2)C1` (stereo not shown) [Cpd. No. 264, 1-(3-(2-(1-(difluoromethyl)-1H-pyrazol-3-yl)-6-(4-fluorophenyl)pyridin-4-yl)pyrrolidin-1-yl)prop-2-en-1-one], for which the 50% effective concentration (EC50) was less than 1 µM. The compound `C=CC(=O)N1CCC(c2cc(-c3ccc(F)cc3)cc(-c3ccn(C(F)F)n3)n2)C1` (stereo not shown) [Cpd. No. 265, 1-(3-(6-(1-(difluoromethyl)-1H-pyrazol-3-yl)-4-(4-fluorophenyl)pyridin-2-yl)pyrrolidin-1-yl)prop-2-en-1-one] yielded an EC50 of less than 1 µM.

For `O=C(O)c1cncc(-c2cccc(-c3ccn(Cc4ccccc4)n3)c2)c1` [compound 001, 5-(3-(1-benzyl-1H-pyrazol-3-yl)phenyl)nicotinic acid], the EC50 was greater than 20 µM. The figure for `NC(=O)c1cncc(-c2cccc(-c3ccn(Cc4ccccc4)n3)c2)c1` [compound 002, 5-(3-(1-benzyl-1H-pyrazol-3-yl)phenyl)nicotinamide] is less than 1 µM. `Nc1cncc(-c2cccc(-c3ccn(Cc4ccccc4)n3)c2)c1` [compound 003, 5-(3-(1-benzyl-1H-pyrazol-3-yl)phenyl)pyridin-3-amine] gave a concentration giving a half-maximal response (EC50) of 1 to 20 µM. The compound `N#Cc1cncc(-c2cccc(-c3ccn(Cc4ccccc4)n3)c2)c1` [compound 005, 5-(3-(1-benzyl-1H-pyrazol-3-yl)phenyl)nicotinonitrile] gave a concentration giving a half-maximal response (EC50) of 1 to 20 µM. The figure for `CCC(=O)Nc1cncc(-c2cccc(-c3ccn(Cc4ccccc4)n3)c2)c1` [compound 006, N-(5-(3-(1-benzyl-1H-pyrazol-3-yl)phenyl)pyridin-3-yl)propionamide] is 1 to 20 µM. Regarding `CC(=O)Nc1cncc(-c2cccc(-c3ccn(Cc4ccccc4)n3)c2)c1` [compound 007, N-(5-(3-(1-benzyl-1H-pyrazol-3-yl)phenyl)pyridin-3-yl)acetamide], the EC50 is less than 1 µM.

Compound `C=CC(=O)Nc1ccccc1-c1cccc(-c2ccn(Cc3ccccc3)n2)c1` [compound 008, N-(3′-(1-benzyl-1H-pyrazol-3-yl)-[1,1′-biphenyl]-2-yl)acrylamide] came in with an EC50 of 1 to 20 µM. The result for `C=CC(=O)Nc1cc(-c2cccc(-c3ccn(Cc4ccccc4)n3)c2)ccn1` [compound 009, N-(4-(3-(1-benzyl-1H-pyrazol-3-yl)phenyl)pyridin-2-yl)acrylamide] reads less than 1 µM; that for `C=CC(=O)Nc1ccc(-c2cccc(-c3ccn(Cc4ccccc4)n3)c2)cn1` [compound 010, N-(5-(3-(1-benzyl-1H-pyrazol-3-yl)phenyl)pyridin-2-yl)acrylamide], 1 to 20 µM; that for `C=CC(=O)Nc1cncc(-c2cccc(-c3ccn(Cc4ccc(C(F)(F)F)cc4)n3)c2)c1` [compound 011, N-(5-(3-(1-(4-(trifluoromethyl)benzyl)-1H-pyrazol-3-yl)phenyl)pyridin-3-yl)acrylamide], 1 to 20 µM. In turn, `C=CC(=O)Nc1cncc(-c2cccc(-c3ccn(Cc4cccc(C(F)(F)F)c4)n3)c2)c1` [compound 012, N-(5-(3-(1-(3-(trifluoromethyl)benzyl)-1H-pyrazol-3-yl)phenyl)pyridin-3-yl)acrylamide] returned an EC50 of 1 to 20 µM. `C=CC(=O)Nc1cncc(-c2cccc(-c3ccn(C)n3)c2)c1` [compound 013, N-(5-(3-(1-methyl-1H-pyrazol-3-yl)phenyl)pyridin-3-yl)acrylamide] showed an EC50 of 1 to 20 µM. The result for `c1ccc(-c2cccc(-c3ccn(Cc4cccnc4)n3)c2)cc1` [compound 014, 3-((3-([1,1′-biphenyl]-3-yl)-1H-pyrazol-1-yl)methyl)pyridine] reads 1 to 20 µM. Regarding `c1ccc(-c2cccc(-c3ccnn3Cc3cccnc3)c2)cc1` [compound 015, 3-((5-([1,1′-biphenyl]-3-yl)-1H-pyrazol-1-yl)methyl)pyridine], the concentration for a half-maximal effect (EC50) is greater than 20 µM. `c1ccc(Cn2ccc(-c3cccc(-c4cncnc4)c3)n2)cc1` [compound 016, 5-(3-(1-benzyl-1H-pyrazol-3-yl)phenyl)pyrimidine] registered an EC50 of 1 to 20 µM. `c1ccc(Cn2nccc2-c2cccc(-c3cncnc3)c2)cc1` [compound 017, 5-(3-(1-benzyl-1H-pyrazol-5-yl)phenyl)pyrimidine]: the concentration for a half-maximal effect (EC50) was 1 to 20 µM. The figure for `Fc1cccc(Cn2ccc(-c3cccc(-c4ccccc4)c3)n2)c1` [compound 018, 3-([1,1′-biphenyl]-3-yl)-1-(3-fluorobenzyl)-1H-pyrazole] is 1 to 20 µM. The result for `COc1cccc(Cn2ccc(-c3cccc(-c4ccccc4)c3)n2)c1` [compound 019, 3-([1,1′-biphenyl]-3-yl)-1-(3-methoxybenzyl)-1H-pyrazole] reads 1 to 20 µM. `N#Cc1cccc(Cn2ccc(-c3cccc(-c4ccccc4)c3)n2)c1` [compound 020, 3-((3-([1,1′-biphenyl]-3-yl)-1H-pyrazol-1-yl)methyl)benzonitrile] came in with an EC50 of 1 to 20 µM. The figure for `c1ccc(-c2cccc(-c3ccn(Cc4ccccn4)n3)c2)cc1` [compound 021, 2-((3-([1,1′-biphenyl]-3-yl)-1H-pyrazol-1-yl)methyl)pyridine] is 1 to 20 µM. `c1ccc(-c2cccc(-c3ccn(Cc4ccncc4)n3)c2)cc1` [compound 022, 4-((3-([1,1′-biphenyl]-3-yl)-1H-pyrazol-1-yl)methyl)pyridine] gave an EC50 of 1 to 20 µM.

As usually defined, the EC50 is the concentration at which the effect is half-maximal. A higher EC50 goes with lower potency in that assay.
